The results in this text go back to ChEMBL document CHEMBL1649570, “Pharmacokinetics and ex vivo pharmacodynamic antimalarial activity of dihydroartemisinin-piperaquine in patients with uncomplicated falciparum malaria in Vietnam” (Antimicrob Agents Chemother, 2009).

Values after ≈ are worked out from the molar mass of the structure shown. Active and inactive are the calls of the source. No cut-off for these calls is given here.

Data set [1] in a line: Cmax in Plasmodium falciparum-infected patient at 40 mg/kg, po. To be noted: human, in vivo. Further details: dose 40 mg/kg, route oral. Format: ADME, organism-based.
Data set [2] can be described thus: Tmax in Plasmodium falciparum-infected patient at 40 mg/kg, po. In kind it is ADME, organism-based. Further details: dose 40 mg/kg, route oral. The following applies: human, in vivo.
Data set [3] is described as follows: AUC in Plasmodium falciparum-infected patient at 40 mg/kg, po. Format: ADME, organism-based. Further details: dose 40 mg/kg, route oral. The following applies: human, plasma.
Data set [4] concerns Homo sapiens. In words: AUC (0 to infinity) in Plasmodium falciparum-infected patient at 40 mg/kg, po. In kind it is ADME, organism-based, Plasma. Also noted: time infinity, dose 40 mg/kg, route oral. The following applies: in vivo.
Data set [5] is described as follows: Half life in Plasmodium falciparum-infected patient at 40 mg/kg, po. In kind it is ADME, organism-based. Also noted: dose 40 mg/kg, route oral. The following applies: human, in vivo.
In data set [6] the test system is Homo sapiens. In words: Apparent oral clearance in Plasmodium falciparum-infected patient at 40 mg/kg, po. Format: ADME, organism-based. Also noted: dose 40 mg/kg, route oral. To be noted: in vivo.
In data set [7] the test system is Plasmodium falciparum. In words: Antiplasmodial activity against Plasmodium falciparum D6. Format: functional.
For data set [8], the system named is Plasmodium falciparum. In words: Antiplasmodial activity against Plasmodium falciparum K1. In kind it is functional.
In data set [9] the test system is Plasmodium falciparum. In words: Antiplasmodial activity against Plasmodium falciparum K1 assessed as inhibition of [3H]hypoxanthine incorporation by beta counting. In kind it is functional, organism-based.
Data set [10] deals with Plasmodium falciparum. In words: Antiplasmodial activity against Plasmodium falciparum D6 isolated from po dosed patient with malaria. Format: functional.
Data set [11] deals with Plasmodium falciparum. In words: Antiplasmodial activity against Plasmodium falciparum K1 isolated from po dosed patient with malaria. Format: functional.
Data set [12] can be described thus: Cmax in Plasmodium falciparum-infected patient at 320 mg/kg, po. Also noted: dose 320 mg/kg, route oral. In kind it is ADME, organism-based. The following applies: human, in vivo.
Data set [13] is described as follows: Tmax in Plasmodium falciparum-infected patient at 320 mg/kg, po. To be noted: human, in vivo. Format: ADME, organism-based. Also noted: dose 320 mg/kg, route oral.
Data set [14] in a line: AUC in Plasmodium falciparum-infected patient at 320 mg/kg, po. Also noted: dose 320 mg/kg, route oral. Format: ADME, organism-based. The following applies: human, plasma.
A short description of data set [15]: AUC (0 to infinity) in Plasmodium falciparum-infected patient at 320 mg/kg, po. In kind it is ADME, organism-based. Further details: time infinity, dose 320 mg/kg, route oral. To be noted: human, plasma.
Data set [16] in a line: Half life in Plasmodium falciparum-infected patient at 320 mg/kg, po. In kind it is ADME, organism-based. Also noted: dose 320 mg/kg, route oral. The following applies: human, in vivo.
For data set [17], the system named is Plasmodium falciparum. In words: Antiplasmodial activity against Plasmodium falciparum K1 isolated from po dosed patient with malaria after 7 days. Format: functional, organism-based.
The subject of data set [18] is Plasmodium falciparum. In words: Antiplasmodial activity against Plasmodium falciparum D6 isolated from po dosed patient with malaria after 7 days. Format: functional, organism-based.
Data set [19] deals with Plasmodium falciparum. In words: Antiplasmodial activity against Plasmodium falciparum D6 isolated from patient with malaria at 25 ng/ml after 28 days. Format: functional, organism-based.
For data set [20], the system named is Plasmodium falciparum. In words: Antiplasmodial activity against Plasmodium falciparum K1 isolated from patient with malaria at 25 ng/ml after 28 days. In kind it is functional, organism-based.
Data set [21] in a line: Plasma concentration in Plasmodium falciparum-infected patient at 320 mg/kg, po after 28 days. Further details: dose 320 mg/kg, route oral. In kind it is ADME, organism-based. To be noted: human.

As to `C[C@H]1[C@@H](O)O[C@@H]2O[C@@]3(C)CC[C@H]4[C@H](C)CC[C@@H]1[C@@]24OO3` [ARTENIMOL], the concentration in [1] peaked (Cmax) at 698 ng/mL. The Tmax in data set [2] turned out to be 2.8 h. For the same compound, the AUC in data set [3] was found to be 1950 ng·h/mL; in the data set on Homo sapiens [4] it was 1949 ng·h/mL. In data set [5], this compound gave a half-life of 51 min. Further, the CL/F with Homo sapiens [6] is 1.19 L/h/kg. For the same compound, the concentration for an effect of 90% (IC90) in the data set on Plasmodium falciparum [7] was found to be 4.5 nM; with Plasmodium falciparum [8] it was 4.85 nM. Besides, in the data set with Plasmodium falciparum [9], the IC50 was 2.57 nM. In addition, the ID90 was 639 ng/mL (≈ 2.25 µM) in the data set on Plasmodium falciparum [10] and 513 ng/mL (≈ 1.8 µM) with Plasmodium falciparum [11].

Regarding `Clc1ccc2c(N3CCN(CCCN4CCN(c5ccnc6cc(Cl)ccc56)CC4)CC3)ccnc2c1` [PIPERAQUINE], the Cmax in data set [12] is 568 ng/mL. In addition, the Tmax in data set [13] was found to be 5.7 h. The AUC in [14] is 44400 ng·h/mL. Further, the AUC(0-inf) in data set [15] is 56400 ng·h/mL. This compound gave a half-life in [16] of 17.8 days. Besides, the 90% effect concentration (IC90) in the data set on Plasmodium falciparum [7] was found to be 67.5 nM; in the data set on Plasmodium falciparum [8], 122 nM. For the same compound, the Cp in the data set on Plasmodium falciparum [17] and with Plasmodium falciparum [18] was 25 ng/mL in each case. The IC50 in the data set with Plasmodium falciparum [9] worked out at 82.1 nM. Besides, the outcome in the data set on Plasmodium falciparum [19] and in the data set with Plasmodium falciparum [20] was inactive. Besides, the concentration at 672 h in data set [21] was found to be 25 ng/mL.

In general, Cmax refers to the highest concentration seen after dosing. As a reminder, the Tmax is the time at which the peak concentration occurs. The term AUC denotes concentration integrated over time. Low values mean low exposure, high ones high exposure. The half-life is how long it takes for the measured level to halve. Read a low half-life as rapid decline. As usually defined, the CL/F is clearance divided by bioavailability, as obtained after extravascular dosing. The term IC90 denotes the point of the concentration-response curve where the effect stands at 90%. A high value points to weaker potency. The IC50 is the concentration that inhibits the measured activity by half. One may read the AUC(0-inf) as the area under the concentration-time curve extrapolated to infinity. Higher therefore signals high exposure.
